Test results as given in patent publication US9512167B2, “Optimized synthesis of pure, non-polymorphic, crystalline bile acids with defined particle size” (Dr. Falk Pharma GmbH, priority 2010, dated 2016).
In brackets after ≈: the same amount, converted by molar mass.

Legend:
Type in all cases: physicochemical
[1] = Particle size analysis of crystals by microscopy (Reference Example)
Experimental: Various properties of Nor-UDCA synthesized according to Schteingart and Hofmann (1988) Journal of Lipid Research Vol. 29(10), […] were investigated.
The particle size of the crystals obtained was analyzed by microscopy. […] This particle size distribution is not suitable for the intended pharmaceutical preparation. Milling/micronization is not desired as this would result in a reduction of the polymorphic purity and/or of the thermodynamic stability of the Nor-UDCA.

[2] = Polymorph screen: relative stability of forms by XRPD re-analysis after storage; conditions: for Stability by XRPD (form found on XRPD re-analysis after storage): storage at ambient conditions
Experimental: (§1) The polymorph screening study was carried out in two phases. In Phase 1, the synthesized Nor-UDCA, designated Form A, was characterised by XRPD, digital imaging, thermal analysis (DSC and TGMS). The purity of the material was checked by HPLC/RI. A qualitative solubility determination with 20 solvents was carried out in order to fit the data for the selection of the crystallization solvents to be employed in the polymorph screen. Additionally, the solids recovered by evaporation of solutions used in the solubility experiments were analyzed by XRPD and digital imaging to obtain information on the potential form formation of new forms of Nor-UDCA (see Table 2). Grinding tests were conducted in order to support the definition of the experimental space for this crystallization mode. Amorphous material to be used as starting material was intentionally produced by freeze-drying from 1,4-dioxane/water (95/5%) solution and by grinding (ball-milling) for “cooling/evaporation and vapour diffusion into solids experiments”. In Phase 2, 217 experiments divided across different crystallization modes were performed. The applied crystallization modes were: • Combined cooling/evaporative crystallization experiments starting with amorphous material • Crystallization with forward anti-solvent addition • Slurry experiments at two temperatures • Vapour diffusion into solutions • Vapour diffusion onto amorphous solids • Crystallization by grinding with 24 solvents and one dry.
Upon completion of the experiments, XRPD and digital images analyses were performed on all crystallized solids.

[3] = Qualitative solubility determination of Nor-UDCA with 20 solvents; conditions: thermodynamic from solid
Experimental: as §1

[4] = Particle size determination by laser diffraction; conditions: dry method, Malvern
Text: The particle size distribution can be determined as described herein in Example 3 and/or according the European Pharmacopeia (Ph. Eur.), edition 6.8. section 2.9.31, preferably with a Mastersizer 2000 by Malvern instruments. The evaluation is typically carried out by the Fraunhofer model.
The precipitation of the free acid leads to Nor-UDCA particles of a consistent and defined size distribution. Micronization by milling in order to control the crystal size of Nor-UDCA can be avoided.

C[C@H](CC(=O)O)[C@H]1CC[C@H]2[C@@H]3[C@@H](O)C[C@@H]4C[C@H](O)CC[C@]4(C)[C@H]3CC[C@]12C
Median particle size (50% of the crystals this size or less) [1]: 13.37 μm | Particle size that 60% of the crystals have or less [1]: 15.64 μm | Particle size that 95% of the particles have or less [1]: 46.64 μm | Share of particles with a particle size of 10 μm or less [1]: Less than 30%

C[C@H](CC(=O)O)[C@H]1CC[C@H]2[C@@H]3[C@@H](O)C[C@@H]4C[C@H](O)CC[C@]4(C)[C@H]3CC[C@]12C [Form B]
Time to conversion to Form A (XRPD re-analysis) ([2]; stored at ambient conditions in well and experimental vial): ≤ 10 days

C[C@H](CC(=O)O)[C@H]1CC[C@H]2[C@@H]3[C@@H](O)C[C@@H]4C[C@H](O)CC[C@]4(C)[C@H]3CC[C@]12C [Form C2]
Stability by XRPD (form found on XRPD re-analysis after storage) [2]: Form A

CC(CC(=O)O)[C@H]1CCC2[C@H]3C(CC[C@@]21C)[C@@]1(C)CCC(O)C[C@H]1C[C@@H]3O (stereo partly drawn) [Nor-UDCA, 3α,7β-dihydroxy-24-nor-5β-cholan-23oic acid]
solubility ([3]; dichloromethane, organic solvent or mixture, solvent Dichlormethane): < 13 mg/mL | solubility ([3]; organic solvent or mixture, solvent 1,2-Dimethoxyethane): < 14 mg/mL | solubility ([3]; organic solvent or mixture, solvent 1,2-Ethanediol): < 14 mg/mL | solubility ([3]; organic solvent or mixture, solvent 1,4-Dioxane): 21 mg/mL (≈ 55.5 mM) | solubility ([3]; organic solvent or mixture, solvent 2,2,2-Trifluoroethanol): 21 mg/mL (≈ 55.5 mM) | solubility ([3]; organic solvent or mixture, solvent 2-Butanone): < 14 mg/mL | solubility ([3]; organic solvent or mixture, solvent Acetone): < 14 mg/mL | solubility ([3]; organic solvent or mixture, solvent Acetonitrile): < 13 mg/mL | solubility ([3]; organic solvent or mixture, solvent Chloroform): < 14 mg/mL | solubility ([3]; organic solvent or mixture, solvent Cyclohexane): < 14 mg/mL | solubility ([3]; organic solvent or mixture, solvent Dimethylsulfoxide): 207 mg/mL (≈ 547 mM) | solubility ([3]; organic solvent or mixture, solvent Methanol): 70 mg/mL (≈ 185 mM) | solubility ([3]; organic solvent or mixture, solvent N-Methyl-2-pyrrolidone): 404 mg/mL (≈ 1070 mM) | solubility ([3]; organic solvent or mixture, solvent Nitrobenzene): < 13 mg/mL | solubility ([3]; organic solvent or mixture, solvent Nitromethane): < 13 mg/mL | solubility ([3]; organic solvent or mixture, solvent Pentane): < 13 mg/mL | solubility ([3]; organic solvent or mixture, solvent Toluene): < 12 mg/mL | solubility ([3]; tert-butyl methyl ether, organic solvent or mixture, solvent Tert-butylmethylether): < 13 mg/mL | solubility ([3]; tetrahydrofuran, organic solvent or mixture, solvent Tetrhydrofurane): 41 mg/mL (≈ 108 mM) | solubility ([3]; solvent Water): < 12 mg/mL | Particle size D(v, 0.5) ([4]; listed as Batch 40019721): 6.4 μm | Particle size D(v, 0.5) ([4]; listed as Batch 40019898): 5.4 μm | Particle size D(v, 0.5) ([4]; listed as Batch 40019902): 6.7 μm | Thermodynamic stability of the crystalline form ([2]; polymorph screening study): thermodynamically stable | Stability by XRPD (form found on XRPD re-analysis after storage) [2]: Form A
